Measured values: patent publication US10815247B2, “Functionalized NANOLUC inhibitors” (PROMEGA CORPORATION, priority 2016, dated 2020)
“Also recorded” adds a separate entry of the source. Like-named read-outs stand apart in the source and are kept apart here.

Experiments:
NanoLuc [1] = target: T1, NanoLuc (Oplophorus gracilirostris, UniProt Q9GV45, A31E/A60N/A81I/F95D/I117V/K70R/L54V/L99Q/M102K/N193R/P142E/Q151K/Q38R/Q45L/V71I/Y165I); assay: Inhibitor IC50 determination; assay type: biochemical
T1 sequence (Q9GV45 28-196 with tags or gaps with the stated changes limits assumed): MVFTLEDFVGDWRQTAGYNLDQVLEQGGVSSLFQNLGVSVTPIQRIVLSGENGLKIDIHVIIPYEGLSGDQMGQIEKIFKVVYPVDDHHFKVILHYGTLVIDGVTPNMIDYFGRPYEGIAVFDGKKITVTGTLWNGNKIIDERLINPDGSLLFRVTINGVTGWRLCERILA
Protocol: The following example provides the IC50 values for the compounds disclosed herein. NANOLUC® enzyme was diluted to 0.4 ng/ml in CO2 independent media+10% FBS to make the detection reagent. A 3× dilution series of each inhibitor was then made in the detection reagent. A “no inhibitor” control was also made for each sample. 50 ul of each inhibitor dilution was mixed with 50 ul of NanoGlo® buffer containing 20 μM furimazine (final furimazine concentration is 10 μM, which is at Km.), and luminescence was measured. Each sample was normalized to the “no inhibitor” control. The IC50 values were then determined using GraphPad Prism (log[inhibitor] vs. normalized response).

NanoLuc [2] = target: T1, NanoLuc; conditions: inhibitor diluted to 3 uM, NanoLuc 0.4 ng/ml, 100 uM furimazine, read at two minute intervals
Protocol: Inhibitors were diluted to 3 uM into OptiMEM+0.1% FBS. NanoLuc was diluted to 0.4 ng/ml into NanoGlo® buffer+100 uM furimazine. 50 ul of each inhibitor was added to 50 ul of the NanoLuc/furimazine/NanoGlo® solution. Samples were immediately placed in a GloMax Multi+ set to read in kinetic mode at two minute intervals.
Inhibitors were diluted to 3 uM into OptiMEM+0.1% FBS. NanoLuc was diluted to 0.4 ng/ml into NanoGlo® buffer+100 uM furimazine. 50 ul of each inhibitor was added to 50 ul of the NanoLuc/furimazine/NanoGlo® solution. Samples were immediately placed in a GloMax® Multi+ set to read in kinetic mode at two minute intervals.

NanoLuc [3] = target: T1, NanoLuc; assay: Suicide inhibition: displacement of inhibitor by furimazine upon dilution (FIG. 7); conditions: 10 μM Nluc + 10 μM inhibitor 30 minutes at RT, diluted to 10 pM, furimazine 10 uM
Protocol: Following dilution, 50 ul of the dilution was combined with 50 ul of NanoGlo® assay buffer.
Following dilution, 50 ul of the dilution was combined with 50 ul of NanoGlo® assay buffer. Final furimazine concentration was 10 uM.

[4] = 0.4 ng/ml NANOLUC in CO2 independent media+10% FBS, final furimazine 10 μM, no pre-incubation noted, read-out: IC50

CCN(C(=O)Cn1c(C(=O)N[C@H]2CC[C@H](C(=O)NCCCCCCCC(=O)NCCOCCOCCC(=O)ON3C(=O)CCC3=O)CC2)cc2sccc21)c1cccc(C)c1 [JRW-0544, 2,5-dioxopyrrolidin-1-yl 1-(trans-4-(4-(2-(ethyl(m-tolyl)amino)-2-oxoethyl)-4H-thieno[3,2-b]pyrrole-5-carboxamido)cyclohexyl)-1,10-dioxo-14,17-dioxa-2,11-diazaicosan-20-oate]
IC50 (NanoLuc [1]): 13 nM | Nluc inhibition over time (kinetic light output) (NanoLuc [2]): steady state binding

CCN(C(=O)Cn1c(C(=O)N[C@H]2CC[C@H](C(=O)OC)CC2)cc2sccc21)c1cccc(CCCBr)c1 [JRW-0548, methyl trans-4-(4-(2-((3-(3-bromopropyl)phenyl)(ethyl)amino)-2-oxoethyl)-4H-thieno[3,2-b]pyrrole-5-carboxamido)cyclohexane-1-carboxylate]
IC50 (NanoLuc [1]): 99 nM | Nluc inhibition over time (kinetic light output) (NanoLuc [2]): steady state inhibition

CCc1cccc(N(CC)C(=O)Cn2c(C(=O)N[C@H]3CC[C@H](C(=O)NCCCCCC(=O)OC)CC3)cc3ccccc32)c1 [JRW-0598, methyl 6-(trans-4-(1-(2-(ethyl(3-ethylphenyl)amino)-2-oxoethyl)-1H-indole-2-carboxamido)cyclohexane-1-carboxamido)hexanoate]
IC50 (NanoLuc [1]): 0.4 nM | displacement of inhibitor by furimazine upon dilution (NanoLuc [3]): slower

CCc1cccc(N(CC)C(=O)Cn2c(C(=O)N[C@H]3CC[C@H](C(=O)NCCCCCCCC(=O)ON4C(=O)CCC4=O)CC3)cc3ccccc32)c1 [JRW-0600, 2,5-dioxopyrrolidin-1-yl 8-(trans-4-(1-(2-(ethyl(3-ethylphenyl)amino)-2-oxoethyl)-1H-indole-2-carboxamido)cyclohexane-1-carboxamido)octanoate]
displacement of inhibitor by furimazine upon dilution (NanoLuc [3]): not displaced | reversibility of Nluc inhibition (NanoLuc [3]): irreversible inhibition; also recorded: irreversibly inhibit

CCc1cccc(N(CC)C(=O)Cn2c(C(=O)N[C@H]3CC[C@H](C(=O)NCCCCCC(=O)ON4C(=O)CCC4=O)CC3)cc3ccccc32)c1 [JRW-0604, 2,5-dioxopyrrolidin-1-yl 6-(trans-4-(1-(2-(ethyl(3-ethylphenyl)amino)-2-oxoethyl)-1H-indole-2-carboxamido)cyclohexane-1-carboxamido)hexanoate]
IC50 (NanoLuc [1]): 2.7 nM | displacement of inhibitor by furimazine upon dilution (NanoLuc [3]): slower | reversibility of Nluc inhibition (NanoLuc [3]): did not show irreversible inhibition

CCc1cccc(N(CC)C(=O)Cn2c(C(=O)N[C@H]3CC[C@H](C(=O)NCCCCCC(=O)Oc4ccccc4)CC3)cc3ccccc32)c1 [JRW-0606, phenyl 6-(trans-4-(1-(2-(ethyl(3-ethylphenyl)amino)-2-oxoethyl)-1H-indole-2-carboxamido)cyclohexane-1-carboxamido)hexanoate]
IC50 (NanoLuc [1]): 4.1 nM | displacement of inhibitor by furimazine upon dilution (NanoLuc [3]): slower

CCc1cccc(N(CC)C(=O)Cn2c(C(=O)N[C@H]3CC[C@H](C(=O)NCCCCCCNC(=O)c4ccc5c(c4)C(=O)OC54c5ccc(OC(C)=O)cc5Oc5cc(OC(C)=O)ccc54)CC3)cc3ccccc32)c1 [JRW-0650, 5-((6-(trans-4-(1-(2-(ethyl(3-ethylphenyl)amino)-2-oxoethyl)-1H-indole-2-carboxamido)cyclohexane-1-carboxamido)hexyl)carbamoyl)-3-oxo-3H-spiro[isobenzofuran-1,9′-xanthene]-3′,6′-diyl diacetate]
displacement of inhibitor by furimazine upon dilution (NanoLuc [3]): slower

CCc1cccc(N(CC)C(=O)Cn2c(C(=O)N[C@H]3CC[C@H](C(=O)NCCCCCCCCNC(=O)CCc4ccc5n4[B-](F)(F)[N+]4=C(C)C=C(C)C4=C5)CC3)cc3ccccc32)c1 [JRW-0888, N-(trans-4-((8-(3-(5,5-difluoro-7,9-dimethyl-5H-5λ4,6λ4-dipyrrolo[1,2-c:2′,1′-f][1,3,2]diazaborinin-3-yl)propanamido)octyl)carbamoyl)cyclohexyl)-1-(2-(ethyl(3-ethylphenyl)amino)-2-oxoethyl)-1H-indole-2-carboxamide]
IC50 (NanoLuc [1]): 26 nM

CCN(C(=O)Cn1c(C(=O)NC2CCC(C(=O)NCCCCCCCCNC(=O)CCC3=[N+]4C(=Cc5c(C)cc(C)n5[B-]4(F)F)C=C3)CC2)cc2sccc21)c1cccc(C)c1 (stereo not drawn) [JRW-0889, N-(trans-4-((8-(3-(5,5-difluoro-7,9-dimethyl-5H-5λ4,6λ4-dipyrrolo[1,2-c:2′,1′-f][1,3,2]diazaborinin-3-yl)propanamido)octyl)carbamoyl)cyclohexyl)-4-(2-(ethyl(m-tolyl)amino)-2-oxoethyl)-4H-thieno[3,2-b]pyrrole-5-carboxamide]
IC50 (NanoLuc [1]; [4]): 280 nM

CCc1cccc(N(CC)C(=O)Cn2c(C(=O)N[C@H]3CC[C@H](C(=O)NCCCCCCNC(=O)CCOCCOCCNC(=O)c4ccc5c(c4)C4(OC5=O)c5ccc(N(C)C)cc5Oc5cc(N(C)C)ccc54)CC3)cc3ccccc32)c1 [JRW-0915, N-(trans-4-((1-(3′,6′-bis(dimethylamino)-3-oxo-3H-spiro[isobenzofuran-1,9′-xanthen]-6-yl)-1,11-dioxo-5,8-dioxa-2,12-diazaoctadecan-18-yl)carbamoyl)cyclohexyl)-1-(2-(ethyl(3-ethylphenyl)amino)-2-oxoethyl)-1H-indole-2-carboxamide]
IC50 (NanoLuc [1]): 5.2 nM

CCc1cccc(N(CC)C(=O)Cn2c(C(=O)N[C@H]3CC[C@H](C(=O)NCCCCCCCCNC(=O)CCOCCOCCNC(=O)c4ccc5c(c4)C4(OC5=O)c5ccc(N(C)C)cc5Oc5cc(N(C)C)ccc54)CC3)cc3ccccc32)c1 [JRW-0920, N-(trans-4-((1-(3′,6′-bis(dimethylamino)-3-oxo-3H-spiro[isobenzofuran-1,9′-xanthen]-6-yl)-1,11-dioxo-5,8-dioxa-2,12-diazaicosan-20-yl)carbamoyl)cyclohexyl)-1-(2-(ethyl(3-ethylphenyl)amino)-2-oxoethyl)-1H-indole-2-carboxamide]
IC50 (NanoLuc [1]): 1.7 nM

CCc1cccc(N(CC)C(=O)Cn2c(C(=O)N[C@H]3CC[C@H](C(=O)NCCCCCCCCNC(=O)CCC(=O)NCCC4=C5C=CC=[N+]5[B-](F)(F)n5c(C)cc(C)c54)CC3)cc3ccccc32)c1 [JRW-1081, N1-(2-(5,5-difluoro-1,3-dimethyl-5H-5λ4,6λ4-dipyrrolo[1,2-c:2′,1′-f][1,3,2]diazaborinin-10-yl)ethyl)-N4-(8-(trans-4-(1-(2-(ethyl(3-ethylphenyl)amino)-2-oxoethyl)-1H-indole-2-carboxamido)cyclohexane-1-carboxamido)octyl)succinamide]
IC50 (NanoLuc [1]): 6 nM

N1-(2-(5,5-difluoro-1,3-dimethyl-5H-5λ4,6λ4-dipyrrolo[1,2-c:2′,1′-f][1,3,2]diazaborinin-10-yl)ethyl)-N4-(1-(trans-4-(1-(2-(ethyl(3-ethylphenyl)amino)-2-oxoethyl)-1H-indole-2-carboxamido)cyclohexyl)-1,10-dioxo-13,16-dioxa-2,9-diazaoctadecan-18-yl)succinamide [JRW-1082]
IC50 (NanoLuc [1]; [4]): 3.3 nM

N1-(2-(5,5-difluoro-1,3-dimethyl-5H-5λ4,6λ4-dipyrrolo[1,2-c:2′,1′-f][1,3,2]diazaborinin-10-yl)ethyl)-N4-(1-(trans-4-(1-(2-(ethyl(3-ethylphenyl)amino)-2-oxoethyl)-1H-indole-2-carboxamido)cyclohexyl)-1,12-dioxo-15,18-dioxa-2,11-diazaicosan-20-yl)succinamide [JRW-1083]
IC50 (NanoLuc [1]; [4]): 1.8 nM

N-(trans-4-((1-(3′,6′-dihydroxy-3-oxo-3H-spiro[isobenzofuran-1,9′-xanthen]-5,6-yl)-1,11-dioxo-5,8-dioxa-2,12-diazaicosan-20-yl)carbamoyl)cyclohexyl)-1-(2-(ethyl(3-ethylphenyl)amino)-2-oxoethyl)-1H-indole-2-carboxamide [JRW-0921]
IC50 (NanoLuc [1]; [4]): 1.1 nM

N-(trans-4-((6-(3′,6′-diamino-3-oxo-3H-spiro[isobenzofuran-1,9′-xanthene]-5,6-carboxamido)hexyl)carbamoyl)cyclohexyl)-1-(2-(ethyl(3-ethylphenyl)amino)-2-oxoethyl)-1H-indole-2-carboxamide [JRW-0859]
IC50 (NanoLuc [1]; [4]): 2 nM

N-(trans-4-((8-(3′,6′-diamino-3-oxo-3H-spiro[isobenzofuran-1,9′-xanthene]-5,6-carboxamido)octyl)carbamoyl)cyclohexyl)-1-(2-(ethyl(3-ethylphenyl)amino)-2-oxoethyl)-1H-indole-2-carboxamide [JRW-0886]
IC50 (NanoLuc [1]; [4]): 3.7 nM

N-(trans-4-((8-(4′,5′-dichloro-3′,6′-dihydroxy-2′,7′-dimethoxy-3-oxo-3H-spiro[isobenzofuran-1,9′-xanthene]-5,6-carboxamido)octyl)carbamoyl)cyclohexyl)-1-(2-(ethyl(3-ethylphenyl)amino)-2-oxoethyl)-1H-indole-2-carboxamide [JRW-0964]
IC50 (NanoLuc [1]; [4]): 12 nM

N-(trans-4-((8-(6-((Z)-2-((E)-3-(1,1-dimethyl-1,4,5,6-tetrahydro-3λ4-pyrrolo[3,2,1-ij]quinolin-2-yl)allylidene)-1-methyl-1,2,5,6-tetrahydro-4H-pyrrolo[3,2,1-ij]quinolin-1-yl)hexanamido)octyl)carbamoyl)cyclohexyl)-1-(2-(ethyl(3-ethylphenyl)amino)-2-oxoethyl)-1H-indole-2-carboxamide [JRW-0958]
IC50 (NanoLuc [1]; [4]): 16 nM
